Reference: patent US20080312192A1, “Diaryl Urea Derivatives in the Treatment of Protein Kinase Dependent Diseases” (priority 2003, published 2008)

Experiments:
RET = target: T1, RET (Homo sapiens, UniProt P07949); experiment: RET kinase inhibition (33P incorporation into poly(Glu,Tyr), GST-wtRET or GST-RET-Men2B); assay type: biochemical
T1 construct: expresses the amino acid region 658-1072 (Swiss prot No. Q9BTB0); made in house; host or cells: Sf9 insect cells (baculovirus, vector pFB-GSTX3)
T1 sequence (P07949 658-1072 isoform P07949-2): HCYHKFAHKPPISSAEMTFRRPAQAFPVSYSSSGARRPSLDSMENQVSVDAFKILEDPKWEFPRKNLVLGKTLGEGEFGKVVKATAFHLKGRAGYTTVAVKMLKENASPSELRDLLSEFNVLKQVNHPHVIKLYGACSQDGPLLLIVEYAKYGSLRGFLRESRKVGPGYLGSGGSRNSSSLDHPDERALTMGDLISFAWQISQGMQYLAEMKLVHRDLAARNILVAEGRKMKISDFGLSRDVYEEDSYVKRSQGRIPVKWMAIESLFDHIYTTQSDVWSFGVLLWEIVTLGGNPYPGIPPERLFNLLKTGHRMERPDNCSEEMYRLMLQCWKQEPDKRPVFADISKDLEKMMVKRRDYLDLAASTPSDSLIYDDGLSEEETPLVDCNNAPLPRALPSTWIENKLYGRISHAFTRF
Experimental: RET kinase inhibition is determined as follows:
The coding sequence for the cytoplasmic domain of wtRET is amplified by PCR from a cDNA library using specific primers. RET-Men2B is generated through site-directed mutagenesis resulting in the M918T mutation. The amplified DNA fragments and the pFB-GSTX3 vector are made compatible for ligation by digestion with SalI and KpnI. Ligation of these DNA fragments results in the baculovirus donor plasmids […] and pFB-GX3-RET-Men2B, respectively.
Production of virus: The baculovirus donor plasmids containing the kinase domains are transfected into the DH10Bac cell line (GIBCO) and the transfected cells are plated on selective agar plates. Colonies without insertion of the fusion sequence into the viral genome (carried by the bacteria) are blue. Single, white colonies are picked and viral DNA (bacmid) is isolated from the bacteria by standard plasmid purification procedures. Sf9 cells or Sf21 cells (American Type Culture Collection) are then transfected in 25 cm^2 flasks with the viral DNA using Cellfectin reagent.
Protein expression in Sf9 cells: Virus-containing media is collected from the transfected cell culture and used for infection to increase its titer. Virus-containing media obtained after two rounds of infection is used for large-scale protein expression. For large-scale protein expression 100 cm^2 round tissue culture plates are seeded with 5×10^7 cells/plate and infected with 1 mL of virus-containing media (approximately 5 MOIs). After 3 days, the cells are scraped off the plate and centrifuged at 500 rpm for 5 minutes. Cell pellets from 10-20, 100 cm^2 plates are re-suspended in 50 mL of ice-cold lysis buffer (25 mM Tris-HCl, pH 7.5, 2 mM EDTA, 1% NP-40, 1 mM DTT, 1 mM PMSF). The cells are stirred on ice for 15 minutes and then centrifuged at 5,000 rpms for 20 minutes.
(§1) Purification of GST-tagged proteins: The centrifuged cell lysate is loaded onto a 2 mL glutathione-sepharose column (Pharmacia) and washed 3× with 10 mL of 25 mM Tris-HCl, pH 7.5, 2 mM EDTA, 1 mM DTT, 200 mM NaCl. The GST-tagged proteins are then eluted by 10 applications (1 mL each) of 25 mM Tris-HCl, pH 7.5, 10 mM reduced-glutathione, 100 mM NaCl, 1 mM DTT, 10% glycerol and stored at −70° C.
Measure of enzyme activity: Tyrosine protein kinase assays with either purified GST-wtRET or GST-RET-Men2B protein are carried out in a final volume of 30 μL containing 15 ng of either GST-RET or GST-RET-Men2B protein, 20 mM Tris-HCl, pH 7.5, 1 mM MnCl2, 10 mM MgCl2, 1 mM DTT, 3 μg/mL poly(Glu, Tyr) 4:1, 1% DMSO, 2.0 μM ATP (γ-[^33P]-ATP 0.1 μCi). The activity is assayed in the presence or absence of inhibitors, by measuring the incorporation of ^33P from [γ^33P] ATP into poly(Glu, Tyr) 4:1. […] Subsequently, 40 μL of the reaction mixture are transferred onto Immobilon-PVDF membrane (Millipore) previously soaked for 5 minutes with methanol, rinsed with water, then soaked for 5 minutes with 0.5% H3PO4 and mounted on vacuum manifold with disconnected vacuum source. After spotting all samples, vacuum is connected and each well rinsed with 200 μL 0.5% H3PO4. Membranes are removed and washed 4× on a shaker with 1.0% H3PO4, once with ethanol. Membranes are counted after drying at ambient temperature, mounting in Packard TopCount 96-well frame, and addition of 10 μl/well of Microscint™ (Packard). […] One unit of protein kinase activity is defined as 1 nmole of ^33P transferred from [γ^33P] ATP to the substrate protein/minute/mg of protein at 37° C.

ITD-Ba/F3 = conditions: Mus musculus, BaF3, 48 h, read-out: Inhibition of Flt-3 dependent Proliferation (ED50) ITD-mutant
Experimental: (§2) Inhibition of Proliferation in Flt-3 Dependent Ba/F3 Cells:
(§3) The compound's potential to penetrate cell membranes and exert antiproliferative effects is determined in Ba/F3 cells dependent on mutated [ITD or D835Y; Gilliland and Griffin, Blood, Vol. 100, No. 5, 153242 (2002)] Flt-3 receptor kinases.
(§4) A modified protocol of the YO-PRO-1 assay in a 96-well format is based on the use of the wild-type IL-3-dependent hematopoietic cell line Ba/F3 (DSMZ, Braunschweig, Germany) and the mutant sub-lines ITD-Ba/F3 or D835Y-Ba/F3 [Weisberg et al., Cancer Cell 1 (5):433-43 (2000)] expressing constitutively activating Flt-3 kinases.
(§5) ITD-FLT3- or D835Y-FLT3-Ba/F3 cells are diluted in fresh medium to a final concentration of 3×10^5 cells per ml and 50 μl aliquots seeded into 96-well plates (1.5×10^4 cells per well). Subsequently, 50 μl 2× compound solutions were added and cells incubated for 48 h. The anti-proliferative and apoptotic activity of a compound is initially tested in triplicates at 10 μM, 1 μM and 0.1 μM concentration on both cell lines. Cells treated with DMSO alone (added to a final concentration of 0.1%) always serves as a control. In addition, a plate blank value is routinely determined in a well containing only 100 μl of medium and no cells.
(§6) To further profile a compound an ED50 determination is done starting at 10 μM or 3 μM of the compound of interest. From those concentrations, stepwise nine dilutions are prepared reaching the final concentrations of 2 μM and 0.5 μM, respectively.
(§7) Activity of inhibitors is assessed by the YO-PRO-1 assay as previously described in [Idziorek et al., J. Immunol. […] Briefly, after the treatment period of 48 h, a 25 μl aliquot of a solution containing 100 mM sodium citrate, pH 4.0, 134 mM sodium chloride and 12.5 μM YO-PRO-1 dye (YO-PRO-1 iodide, #Y3603, Molecular Probes) is directly added to the 100 μl medium in the wells of the 96-well plate. That results in a final dye concentration of 2.5 μM, the plate is then incubated for 10 min at ambient temperature in the dark. The uptake of the YO-PRO-1 dye into cells is assessed by a first measurement using a Cytofluor II 96-well plate reader (PerSeptive Biosystems) with the following settings: Excitation (nm) 485120 and Emission (nm) 530/25, Gain 75. After this first reading, 25 μl of lysis buffer consisting of 20 mM sodium citrate, pH 4.0, 26.8 mM sodium chloride, 0.4% NP40, 20 mM EDTA and 20 mM is added to each well. Cell lysis is completed within 60 min at room temperature and total amount of YO-PRO-1 bound to DNA is determined by a second measurement using the Cytofluor II 96-well reader with the identical setting as described above.

D835Y-Ba/F3 = conditions: Mus musculus, BaF3, 48 h, read-out: Inhibition of Flt-3 dependent Proliferation (ED50) D835-mutant
Experimental: as §2, §3, §4, §5, §6, §7

Flt-3 = target: T2, Flt-3 (Homo sapiens, UniProt P36888); experiment: Flt-3 kinase inhibition (GST-Flt-3, 33P incorporation into poly(Glu,Tyr)); assay type: biochemical
T2 construct: amino acids 563-993 of the cytoplasmic kinase domain of human Flt-3; made in house; host or cells: Sf9 insect cells (baculovirus, vector pFbacG01)
T2 sequence (P36888 563-993): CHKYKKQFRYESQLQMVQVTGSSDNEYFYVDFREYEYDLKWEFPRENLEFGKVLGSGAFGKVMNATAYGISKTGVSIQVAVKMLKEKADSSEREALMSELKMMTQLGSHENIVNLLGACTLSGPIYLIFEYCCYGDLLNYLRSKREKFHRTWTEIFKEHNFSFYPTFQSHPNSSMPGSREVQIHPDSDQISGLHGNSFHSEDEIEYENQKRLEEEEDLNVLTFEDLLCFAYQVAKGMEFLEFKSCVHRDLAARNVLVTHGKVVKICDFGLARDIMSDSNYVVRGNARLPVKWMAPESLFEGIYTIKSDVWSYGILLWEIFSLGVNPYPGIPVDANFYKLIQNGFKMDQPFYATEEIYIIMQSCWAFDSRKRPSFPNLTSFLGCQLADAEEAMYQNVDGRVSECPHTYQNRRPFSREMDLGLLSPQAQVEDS
Experimental: Flt-3 kinase inhibition is determined as follows: The baculovirus donor vector pFbacG01 (GIBCO) is used to generate a recombinant baculovirus expressing the amino acid region amino acids 563-993 of the cytoplasmic kinase domain of human Flt-3. The coding sequence for the cytoplasmic domain of Flt-3 is amplified by PCR from human c-DNA libraries (Clontech). The amplified DNA fragments and the pFbacG01 vector are made compatible for ligation by digestion with BamHI and HindIII. Ligation of these DNA fragments results in the baculovirus donor plasmid pFbacG01-Flt-3. The production of the viruses, the expression of proteins in Sf9 cells and the purification of the GST-fused proteins are performed as follows:
Production of virus: The baculovirus donor plasmid (pFbacG01-Flt-3) containing the Flt-3 kinase domain is transfected into the DH10Bac cell line (GIBCO) and the transfected cells are plated on selective agar plates. Colonies without insertion of the fusion sequence into the viral genome (carried by the bacteria) are blue. Single white colonies are picked and viral DNA (bacmid) is isolated from the bacteria by standard plasmid purification procedures. Sf9 or Sf21 cells (American Type Culture Collection) are then transfected in flasks with the viral DNA using Cellfectin reagent.
Protein expression in Sf9 cells: Virus containing media is collected from the transfected cell culture and used for infection to increase its titre. Virus containing media obtained after two rounds of infection is used for large-scale protein expression. For large-scale protein expression 100 cm^2 round tissue culture plates are seeded with 5×10^7 cells/plate and infected with 1 mL of virus-containing media (approx. 5 MOIs). After 3 days the cells are scraped off the plate and centrifuged at 500 rpm for 5 min. Cell pellets from 10-20, 100 cm^2 plates are resuspended in 50 mL of ice-cold lysis buffer (25 mM Tris-HCl, pH 7.5, 2 mM EDTA-1% NP-40. 1 mM DTT, 1 mM PMSF). The cells are stirred on ice for 15 min and then centrifuged at 5000 rpms for 20 min.
as §1, with “protein:” for “proteins:”, “three times” for “3×”, “protein is” for “proteins are”, “Glycerol” for “glycerol”
Measurement of enzyme activity: Tyrosine protein kinase assays with purified GST-Flt-3 protein are carried out in a final volume of 30 μL containing 200-1800 ng of enzyme protein (depending on the specific activity), 20 mM Tris-HCl, pH 7.6, 3 mM MnCl2, 3 mM MgCl2, 1 mM DTT, 10 μM Na3VO4, 3 μg/mL poly(Glu, Tyr) 4:1, 1% DMSO, 8.0 μM ATP and 0.1 μCi [γ^33 P] ATP. The activity is assayed in the presence or absence of inhibitors, by measuring the incorporation of ^33P from [γ^33P] ATP into the poly(Glu,Tyr) substrate. The assay (30 μL) is carried out in 96-well plates at ambient temperature for 20 min and terminated by the addition of 20 μL of 125 mM EDTA. Subsequently, 40 μL of the reaction mixture is transferred onto Immobilon-PVDF membrane (Millipore, Bedford, Mass., USA) previously soaked for 5 min with methanol, rinsed with water, then soaked for 5 min with 0.5% H3PO4 and mounted on vacuum manifold with disconnected vacuum source. After spotting all samples, vacuum is connected and each well rinsed with 200 μL 0.5% H3PO4. Membranes are removed and washed 4× on a shaker with 1.0% H3PO4, once with ethanol. Membranes are counted after drying at ambient temperature, mounting in Packard TopCount 96-well frame, and addition of 10 μL/well of Microscint™ (Packard). IC50 values are calculated by linear regression analysis of the percentage inhibition of each compound in duplicate, at four concentrations (usually 0.01, 0.1, 1 and 10 μM). One unit of protein kinase activity is defined as 1 nmole of ^33P transferred from [γ3P] […]

Row | IC50 (RET) | EC50 (ITD-Ba/F3) | EC50 (D835Y-Ba/F3) | melting point | IC50 (Flt-3) | Structure (SMILES)
1 | 110 nM |  |  |  |  | CNc1cc(Oc2ccc(NC(=O)Nc3cc(CN(C)C)cc(C(F)(F)F)c3)cc2)ncn1 [1-(3-Dimethylaminomethyl-5-trifluoromethyl-phenyl)-3-[4-(6-methylamino-pyrimidin-4-yloxy)-phenyl]-urea]
2 | 260 nM |  |  |  |  | CN1CCN(Cc2cc(NC(=O)Nc3ccc(Oc4cc(N)ncn4)cc3)cc(C(F)(F)F)c2)CC1 [1-[4-(6-Amino-pyrimidin-4-yloxy)-phenyl]-3-[3-(4-methyl-piperazin-1-ylmethyl)-5-trifluoromethyl-phenyl]-urea]
3 | 590 nM |  |  |  |  | CNc1cc(Oc2ccc(NC(=O)Nc3cc(CN4CCN(C)CC4)cc(C(F)(F)F)c3)cc2)ncn1 [1-[4-(6-Methylamino-pyrimidin-4-yloxy)-phenyl]-3-[3-(4-methyl-piperazin-1-ylmethyl)-5-trifluoromethyl-phenyl]-urea]
4 |  | < 0.2 nM | 3.9 nM |  |  | CNc1nccc(Oc2ccc(NC(=O)Nc3ccc(CN4CCN(C(C)C)CC4)c(C(F)(F)F)c3)cc2)n1 [Example 46, N-[4-(2-Methylamino-pyrimidin-4-yloxy)-phenyl]-N′-[4-(4-isopropylpiperazin-1-ylmethyl)-3-trifluoromethyl-phenyl]-urea]
5 |  | 0.1 nM | 11.7 nM | 257 to 258 °C |  | CNc1nccc(Oc2ccc(NC(=O)Nc3ccc(CN4CCN(C(C)(C)C)CC4)c(C(F)(F)F)c3)cc2)n1 [Example 49, N-[4-(2-Methylamino-pyrimidin-4-yloxy)-phenyl]-N′-[4-(4-tert-butylpiperazinyl-methyl)-3-trifluoromethyl-phenyl]-urea]
6 |  |  |  | 118 to 123 °C | 160 nM | CNc1cc(Oc2ccc(NC(=O)Nc3ccc(-c4cccnc4)c(C(F)(F)F)c3)cc2)ncn1 [Example 62, 1-[4-(6-Methylamino-pyrimidin-4-yloxy)-phenyl]-3-(4-pyridin-3-yl-3-trifluoromethyl-phenyl)-urea]
7 |  |  |  | 127 to 130 °C | 140 nM | CNc1cc(Oc2ccc(NC(=O)Nc3ccc(-c4ccncc4)c(C(F)(F)F)c3)cc2)ncn1 [Example 63, 1-[4-(6-Methylamino-pyrimidin-4-yloxy)-phenyl]-3-(4-pyridin-4-yl-3-trifluoromethyl-phenyl)-urea]
8 |  |  |  | 106 to 109 °C | 340 nM | CNc1cc(Oc2ccc(NC(=O)Nc3ccc(-c4cccc(C)n4)c(C(F)(F)F)c3)cc2)ncn1 [Example 64, 1-[4-(6-Methylamino-pyrimidin-4-yloxy)-phenyl]-3-[4-(6-methyl-pyridin-2-yl)-3-trifluoromethyl-phenyl]-urea]
